Several values for one entry are separate records, joined by “and”; a condition that tells them apart may be missing. Equal values may be shown once.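 Interpolation was linear, between the two tested concentrations surrounding the appropriate level; five concentrations were tested over 48 hours in 96-well plates. GI50: concentration for 50% inhibition of growth. Definition used: TGI = concentration required for complete inhibition of growth.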
Assays:
Assay in all cases: NCI tumour cell line growth inhibition, 48 h
M14 melanoma = tested on: M14 melanoma
SF-539 CNS = tested on: SF-539 CNS
OVCAR-4 ovarian = tested on: OVCAR-4 ovarian
SK-MEL-28 melanoma = tested on: SK-MEL-28 melanoma
MALME-3M melanoma = tested on: MALME-3M melanoma
NCI-H226 lung = tested on: NCI-H226 lung
HCT-116 colon = tested on: HCT-116 colon
HOP-92 NSCLC = tested on: HOP-92 NSCLC
HCC-2998 colon = tested on: HCC-2998 colon
UACC-62 melanoma = tested on: UACC-62 melanoma
SK-MEL-2 melanoma = tested on: SK-MEL-2 melanoma
DU-145 prostate = tested on: DU-145 prostate
SF-268 CNS = tested on: SF-268 CNS
SR leukemia = tested on: SR leukemia
RPMI-8226 leukemia = tested on: RPMI-8226 leukemia
KM12 colon = tested on: KM12 colon
IGROV1 ovarian = tested on: IGROV1 ovarian
LOX IMVI melanoma = tested on: LOX IMVI melanoma
T-47D breast = tested on: T-47D breast
HCT-15 colon = tested on: HCT-15 colon
OVCAR-5 ovarian = tested on: OVCAR-5 ovarian
SN12C renal = tested on: SN12C renal
TK-10 renal = tested on: TK-10 renal
SNB-75 CNS = tested on: SNB-75 CNS
BT-549 breast = tested on: BT-549 breast
HOP-62 NSCLC = tested on: HOP-62 NSCLC
SF-295 CNS = tested on: SF-295 CNS
NCI-H460 lung = tested on: NCI-H460 lung
SK-OV-3 ovarian = tested on: SK-OV-3 ovarian
SW-620 colon = tested on: SW-620 colon
K-562 leukemia = tested on: K-562 leukemia
786-0 renal = tested on: 786-0 renal
HT29 colon = tested on: HT29 colon
EKVX NSCLC = tested on: EKVX NSCLC
HS 578T breast = tested on: HS 578T breast
MDA-MB-435 = tested on: MDA-MB-435
ACHN renal = tested on: ACHN renal
MOLT-4 leukemia = tested on: MOLT-4 leukemia
OVCAR-3 ovarian = tested on: OVCAR-3 ovarian
CCRF-CEM leukemia = tested on: CCRF-CEM leukemia
A549 NSCLC = tested on: A549 NSCLC
NCI/ADR-RES ovarian = tested on: NCI/ADR-RES ovarian
PC-3 prostate = tested on: PC-3 prostate
HL-60(TB) leukemia = tested on: HL-60(TB) leukemia
SNB-19 CNS = tested on: SNB-19 CNS
NCI-H522 lung = tested on: NCI-H522 lung
U251 CNS = tested on: U251 CNS
OVCAR-8 ovarian = tested on: OVCAR-8 ovarian
UO-31 renal = tested on: UO-31 renal
CAKI-1 renal = tested on: CAKI-1 renal
UACC-257 melanoma = tested on: UACC-257 melanoma
MDA-MB-231 breast = tested on: MDA-MB-231 breast
NCI-H23 lung = tested on: NCI-H23 lung
COLO 205 colon = tested on: COLO 205 colon
MDA-N = tested on: MDA-N
RXF 393 renal = tested on: RXF 393 renal
MCF7 breast = tested on: MCF7 breast
A498 renal = tested on: A498 renal
SK-MEL-5 melanoma = tested on: SK-MEL-5 melanoma

## COC(O)C12OC3CO[Si](C(C)C)(C(C)C)O[Si](C(C)C)(C(C)C)OC3C1Oc1nc(=O)ccn12 (stereo not given)
M14 melanoma
  TGI: 25.3 µM
SF-539 CNS
  TGI: 29.3 µM
OVCAR-4 ovarian
  TGI: 28 µM
SK-MEL-28 melanoma
  TGI: > 100 µM
MALME-3M melanoma
  TGI: 26.9 µM
NCI-H226 lung
  TGI: 33.9 µM
HCT-116 colon
  TGI: 21.8 µM
HOP-92 NSCLC
  TGI: 22 µM
HCC-2998 colon
  TGI: 14.9 µM
UACC-62 melanoma
  TGI: 23.4 µM
SK-MEL-2 melanoma
  TGI: 25.1 µM
DU-145 prostate
  TGI: 30.6 µM
SF-268 CNS
  TGI: 26.4 µM
SR leukemia
  TGI: 6.98 µM
RPMI-8226 leukemia
  TGI: 3.51 µM
KM12 colon
  TGI: 19 µM
IGROV1 ovarian
  TGI: 25.6 µM
LOX IMVI melanoma
  TGI: 27.9 µM
T-47D breast
  TGI: 24.1 µM
HCT-15 colon
  TGI: 30.9 µM
OVCAR-5 ovarian
  TGI: 29.1 µM
SN12C renal
  TGI: 27.8 µM
TK-10 renal
  TGI: 28.7 µM
SNB-75 CNS
  TGI: 41.3 µM
BT-549 breast
  TGI: 29.3 µM
HOP-62 NSCLC
  TGI: 26.9 µM
SF-295 CNS
  TGI: 24.8 µM
NCI-H460 lung
  TGI: 23.4 µM
SK-OV-3 ovarian
  TGI: 31.6 µM
SW-620 colon
  TGI: > 52.7 µM
K-562 leukemia
  TGI: 64.9 µM
786-0 renal
  TGI: 31.1 µM
HT29 colon
  TGI: 20.5 µM
EKVX NSCLC
  TGI: 28.7 µM
HS 578T breast
  TGI: 19.5 µM
MDA-MB-435
  TGI: 26.7 µM
ACHN renal
  TGI: 27.5 µM
MOLT-4 leukemia
  TGI: 5.78 µM
OVCAR-3 ovarian
  TGI: 23.5 µM
CCRF-CEM leukemia
  TGI: 18.5 µM
A549 NSCLC
  TGI: 26.1 µM
NCI/ADR-RES ovarian
  TGI: 50.6 µM
PC-3 prostate
  TGI: 17 µM
HL-60(TB) leukemia
  TGI: 13.2 µM
SNB-19 CNS
  TGI: 28.9 µM
NCI-H522 lung
  TGI: 18.3 µM
U251 CNS
  TGI: > 48.3 µM
OVCAR-8 ovarian
  TGI: 24.6 µM
UO-31 renal
  TGI: 29.3 µM
CAKI-1 renal
  TGI: 33.7 µM
UACC-257 melanoma
  TGI: 24.3 µM
MDA-MB-231 breast
  TGI: 34 µM
NCI-H23 lung
  TGI: 28.4 µM
COLO 205 colon
  TGI: 27.3 µM
MDA-N
  TGI: 26.7 µM
RXF 393 renal
  TGI: 24.6 µM
MCF7 breast
  TGI: 24.8 µM
A498 renal
  TGI: 32.9 µM
SK-MEL-5 melanoma
  TGI: 21.1 µM

## COc1cc(CC(C)C(C)Cc2ccc(O)c(OC)c2)ccc1O (stereo not given)
M14 melanoma
  TGI: 47.5 µM and 30.2 µM
SF-539 CNS
  GI50: 17 µM
  TGI: 50 µM and 31.6 µM
OVCAR-4 ovarian
  GI50: 17.3 µM
  TGI: 50 µM and 41.2 µM
SK-MEL-28 melanoma
  TGI: 50 µM and 35.5 µM
MALME-3M melanoma
  GI50: 16.2 µM
  TGI: 32.7 µM and 34 µM
NCI-H226 lung
  GI50: 16.8 µM
  TGI: 40.7 µM and 33.2 µM
HCT-116 colon
  GI50: 14.6 µM
  TGI: 50 µM and 27.7 µM
HOP-92 NSCLC
  GI50: 14.5 µM
  TGI: 27.6 µM and 30.2 µM
HCC-2998 colon
  TGI: 32.7 µM
UACC-62 melanoma
  GI50: 14.4 µM
  TGI: 50 µM and 27.6 µM
SK-MEL-2 melanoma
  TGI: 25 µM
DU-145 prostate
  GI50: 17 µM
  TGI: 50 µM and 30.6 µM
SF-268 CNS
  TGI: 50 µM and 34.7 µM
SR leukemia
  GI50: 6.41 µM
  TGI: 18.8 µM and 24.9 µM
RPMI-8226 leukemia
  GI50: 19.4 µM
  TGI: 17.4 µM and 45.8 µM
KM12 colon
  GI50: 17.6 µM
  TGI: 50 µM and 33.8 µM
IGROV1 ovarian
  GI50: 16.4 µM
  TGI: 43.1 µM and 33.7 µM
LOX IMVI melanoma
  GI50: 17.9 µM
  TGI: 30.7 µM and 40.9 µM
T-47D breast
  GI50: 21.9 µM
  TGI: 50 µM and 50.6 µM
HCT-15 colon
  GI50: 18 µM
  TGI: 50 µM and 39.9 µM
OVCAR-5 ovarian
  GI50: 14.4 µM
  TGI: > 50 µM and 27.7 µM
SN12C renal
  GI50: 13.1 µM
  TGI: 50 µM and 26 µM
TK-10 renal
  GI50: 18.2 µM
  TGI: 50 µM and 32.7 µM
SNB-75 CNS
  GI50: 18.4 µM
  TGI: 50 µM and 34.5 µM
BT-549 breast
  TGI: 50 µM and 31.4 µM
HOP-62 NSCLC
  GI50: 17.6 µM
  TGI: 50 µM and 33.6 µM
SF-295 CNS
  TGI: 50 µM and 35.1 µM
NCI-H460 lung
  GI50: 18.3 µM
  TGI: 39.9 µM and 32.3 µM
SK-OV-3 ovarian
  GI50: 16.9 µM
  TGI: 50 µM and 33.4 µM
SW-620 colon
  TGI: 50 µM and 35 µM
K-562 leukemia
  GI50: 12.7 µM
  TGI: 50 µM and 39 µM
786-0 renal
  GI50: 13.6 µM
  TGI: 50 µM and 26.5 µM
HT29 colon
  GI50: 16.2 µM
  TGI: 50 µM and 31.1 µM
EKVX NSCLC
  TGI: 41.5 µM and 30.3 µM
HS 578T breast
  GI50: 20 µM
  TGI: 22.7 µM and 49.8 µM
MDA-MB-435
  GI50: 15.1 µM
  TGI: 38.4 µM and 29.6 µM
ACHN renal
  TGI: 37.9 µM and 28.2 µM
MOLT-4 leukemia
  GI50: 1.39 µM
  TGI: 22 µM and 13 µM
OVCAR-3 ovarian
  TGI: 50 µM and 32.5 µM
CCRF-CEM leukemia
  GI50: 0.0496 µM
  TGI: 40.2 µM and 20.8 µM
A549 NSCLC
  TGI: 50 µM and 27.1 µM
NCI/ADR-RES ovarian
  TGI: 50 µM and 41.6 µM
PC-3 prostate
  TGI: 27.7 µM
HL-60(TB) leukemia
  GI50: 0.0179 µM
SNB-19 CNS
  GI50: 15.8 µM
  TGI: 50 µM and 29.6 µM
NCI-H522 lung
  GI50: 16.2 µM
  TGI: 21.4 µM and 33.5 µM
U251 CNS
  TGI: 50 µM
OVCAR-8 ovarian
  TGI: 50 µM and 41 µM
UO-31 renal
  TGI: 25.3 µM
CAKI-1 renal
  TGI: 50 µM and 31.9 µM
UACC-257 melanoma
  GI50: 19.2 µM
  TGI: 50 µM and 37.3 µM
MDA-MB-231 breast
  TGI: 50 µM
NCI-H23 lung
  GI50: 21.2 µM
  TGI: 50 µM and 44.4 µM
COLO 205 colon
  GI50: 18.1 µM
  TGI: > 50 µM and 32.9 µM
MDA-N
  GI50: 13.7 µM
  TGI: 50 µM and 26.6 µM
RXF 393 renal
  GI50: 17.7 µM
  TGI: 42.7 µM and 35.4 µM
MCF7 breast
  TGI: 38 µM
A498 renal
  TGI: 32.8 µM
SK-MEL-5 melanoma
  GI50: 14.9 µM
  TGI: 16.5 µM and 28.1 µM

From PubChem BioAssay (NCI)
